Data set [1] concerns MPTP model of Parkinson's disease. The experiment in a line: Immobility score, MPTP model of Parkinson's disease in marmoset monkeys. The following applies: for Mean immobility score: 0-4 scale. Format: in vivo, marmoset monkeys (Callithrix jacchus). From the text: (§1) The 1-methyl-4-phenyl-1,2,3,6-tetrahydropyridine (MPTP) model that was used is capable of reducing striatal dopamine levels to 5% of normal controls. The MPTP model was used to produce Parkinson's-like disease symptoms in three sequential independent cohorts of six marmosets monkeys (Callithrix jacchus, approximately 0.3-0.5 kg, 2-5 years) which were then observed for 3 weeks to confirm the absence of parkinsonian behavior and motor abnormalities. A single dose of 17-EAT or amantadine was administered at the beginning of Week 4 to confirm the absence of behavioral side effects. All subjects received subcutaneous injections of 1-2 mg/kg MPTP on Days 3, 4, and 5 of Week 5 and Day 1 and 3 of Week 6 for a total of 6.5 mg/kg MPTP and were observed through the end of Week 7 without further treatment, then randomized for treatment.
Oral administration of treatment of vehicle, amantadine, or 17-EAT formulated in acacia syrup began at the start of Week 8. Vehicle controls received acacia syrup only. Amantadine HCl (Sigma Aldrich, A1260-SG) was administered daily at a dose of 1 mg/kg. 17-EAT was administered daily at a dose of 30 mg/kg. In Weeks 8 and 9 test compound activity against parkinsonian behavior was observed several times daily for effects on clinical signs (lack of grooming, apathy, immobility, muscle rigidity, and tremor activity) and given an immobility score on a 0-4 scale, with 0 being normal and 4 being the most severe score. Ratings were performed by study personnel blind to treatment.

Data set [2] deals with tyrosine hydroxylase positive neurons. In words: Surviving tyrosine hydroxylase positive neurons in substantia nigra of MPTP marmosets. The following applies: Week 14, substantia nigra; FIG. 3. Format: in vivo, marmoset monkeys (Callithrix jacchus). The procedure: (§2) The severity of LID was measured by abnormal involuntary movements score (AIMS) adapted to the primate PD model. The items include assessment of extremity and trunk movements, facial expression, and movement of the lips, peri-oral area, tongue, and jaw. These symptoms were scored on a scale from 0 (normal), 1 ([…]), 2 (mild), 3 (moderate) to 4 (severe). Measurement of parkinsonian behaviors continued as previously described. […] The subjects were exsanguinated under deep anaesthesia with Alphaxan (18 mg/kg i.m.). Immediately thereafter, the subjects were euthanized with EUTHASOL (pentobarbital natrium, i.c.). The brain of each subject was removed and frozen for immunohistochemical analyses. SNpc was analyzed for the presence of DA positive neurons with tyrosine hydroxylase immune reactive (TH-IR) staining.
In Week 14, all subjects were sacrificed and tissue samples from the substantia nigra were evaluated to measure the number of surviving tyrosine hydroxylase positive neurons. The increase in number of surviving TH+ neurons for subjects treated with amantadine and 17-EAT was 40% and 75%, as shown in FIG. 3.

Data set [3] deals with levodopa-induced dyskinesia (LID). The experiment in a line: Abnormal involuntary movements score (AIMS), levodopa-induced dyskinesia in MPTP marmosets. As to conditions: for AIMS: Week 12, in combination with levodopa 10 mg/kg, items scored 0-4; for Abnormal involuntary movements scores (AIMS) in combination with levodopa: Week 12, levodopa 5, 7.5, 10, 12.5 or 25 mg/kg, FIG. 2. Format: in vivo, marmoset monkeys (Callithrix jacchus). As for the experimental part:
as §2

In data set [4] the test system is TNF, IL-1b, IL-6, and other inflammatory cytokines. As to conditions: cited from earlier work.
The nature of data set [5]: Body weight of MPTP marmosets. Format: in vivo, marmoset monkeys (Callithrix jacchus). The following applies: FIG. 4.
From the text: as §1
Oral administration of treatment of vehicle, amantadine, or 17-EAT formulated in acacia syrup began at the start of Week 8. Vehicle controls received acacia syrup only. Amantadine HCl (Sigma Aldrich, A1260-SG) was administered daily at a dose of 1 mg/kg. 17-EAT was administered daily at a dose of 30 mg/kg. […]

For data set [6], the system named is rodent models of systemic inflammation and neuroinflammation. As to conditions: cited from earlier work.
The mark [7] stands for this setting: Week 7, prior to treatment, 0 normal, 4 most severe.
[8] abbreviates: Week 8, monotherapy, oral daily (amantadine 1 mg/kg, 17-EAT 30 mg/kg).
The mark [9] stands for this setting: Week 9, monotherapy, oral daily (amantadine 1 mg/kg, 17-EAT 30 mg/kg).

The values that follow come from patent US20240108636A1, “COMPOSITIONS FOR TREATMENT OF NEURODEGENERATIVE CONDITIONS” (BIOVIE INC., priority 2021, published 2024).

Counter-ions that a name gives are not always drawn.

On to `NC12CC3CC(CC(C3)C1)C2` [Amantadine, Amantadine HCl], for which the Mean immobility score in data set [1] (setting [7]) was 2.59; in data set [1] (setting [8]), 2.74; in data set [1] (setting [9]), 2.72. Also, in data set [2], the “Increase in number of surviving TH+ neurons” value came out at 40%. Also, in data set [3], the AIMS is 4.5. Moreover, in data set [3], the “Abnormal involuntary movements scores (AIMS) in combination with levodopa” value is “improved compared to monotherapy”.
In the case of `C#C[C@]1(O)CC[C@H]2[C@@H]3[C@@H](O)C=C4C[C@@H](O)CC[C@]4(C)[C@H]3CC[C@@]21C` [Compound 17-EAT, 17-ethynyl-10R, 13S-dimethyl 2,3,4,7, 8R, 9S, 10, 11, 12, 13, 14S, 15, 16, 17-hexadecahydro-1H-cyclopenta[a]phenanthrene-3R, 7R, 17S-triol], the Mean immobility score in data set [1] (setting [7]) was found to be 2.72; in data set [1] (setting [8]), 2.26; in data set [1] (setting [9]) it was 2.10. Besides, the “Mean immobility scores in combination with levodopa” value in data set [1] (combination with levodopa 5, 7.5, 10, 12.5 or 25 mg/kg, FIG. 1) is on record as “improved compared to 17-EAT monotherapy”. Moreover, the “Expression of TNF, IL-1b, IL-6, and other inflammatory cytokines” value in data set [4] was “decreases expression”. For the same compound, in data set [5], the Mean body weight entry is given as “maintained a higher mean body weight compared to either vehicle or amantadine”. For the same compound, the “Increase in number of surviving TH+ neurons” value in data set [2] is 75%. Besides, the “Activity in rodent models of neurological disease” value in data set [6] (Parkinson's disease, experimental autoimmune encephalomyelitis, optic neuritis, glaucoma) is given as “anti-neuroinflammatory or neuroprotective activity”. The “Activity in rodent models of systemic inflammation” value in data set [6] (type 2 diabetes, COPD, rheumatoid arthritis) is “active in rodent models of systemic inflammation”. Moreover, the AIMS in data set [3] turned out to be 2.1. For the same compound, in data set [3], the “Abnormal involuntary movements scores (AIMS) in combination with levodopa” value is given as “improved compared to monotherapy”.
On to `N[C@@H](Cc1ccc(O)c(O)c1)C(=O)O` [Levodopa, L-3,4-dihydroxyphenylalanine], for which the LID expression entry in data set [3] (levodopa 12.5 mg/kg BID) is reported as “induced LID expression in all subjects”.
